What was measured:
Derm. dermatonomous = conditions: British Pat. No. 1303171 and application No. 36289/70; cited from earlier work
Cl. perfringens = conditions: British Pat. No. 1303171 and application No. 36289/70; cited from earlier work
[1] = target: hydroxymethyldihydropteridine pyrophosphokinase (HMPPS) (Escherichia coli, UniProt P26281); assay: Inhibition of the enzymes of dihydropteroate biosynthesis (ATP-γ-P32 transfer / dihydropteroate-C14 formation); assay type: biochemical; conditions: E. coli enzyme extract; tests of Example K; read-out: concentration giving 50% inhibition
hydroxymethyldihydropteridine pyrophosphokinase (HMPPS), sequence (P26281 whole entry): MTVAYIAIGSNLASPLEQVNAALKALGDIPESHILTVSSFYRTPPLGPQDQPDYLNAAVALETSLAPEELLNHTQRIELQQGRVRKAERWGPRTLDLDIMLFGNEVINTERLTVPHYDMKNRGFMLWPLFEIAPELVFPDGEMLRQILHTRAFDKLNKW
Description: The inhibiting activity against HMPPS of a selected compound of formula (I) can, for instance, be tested by monitoring the transfer of the terminal phosphate of adenosinetriphosphate ATP-γ-p^32 to `dihydropteridine`. […] Such inhibition may, for instance, be easily and simply carried out by incubating an extract of E. coli with pAb-7-C^14, ATP, Mg and `dihydropteridine`. The formation of the dihydropteroate-C^14 can be quantitatively assayed after separating the unreacted pAB substrate, for instance by chromatography. […] Preferably the value is 25 μM or less, such as in the range between 2 to 12 μM. Generally a value below 7 μM is desirable. […]
(a) An assay for HMPPS was developed in which the transfer of the terminal phosphate of ATP-γ-P^32 to Pt could be monitored and correlated with the amount of inhibition of HMPPS by the compound under test. […]
Tubes 1 to 9 containing the amounts of components shown in the Table, were filled up to 200 μl with distilled water, incubated for 60 minutes at 37° C. and then chilled on ice. […] The charcoal and the filter were then radioactively counted. […]
(b) The activity of the test compound of formula (I) against `synthetase` was determined as follows, by monitoring the formation of dihydropteroate C^14. […]

Structure (SMILES)	bacteriostatic activity (Derm. dermatonomous)	bacteriostatic activity (Cl. perfringens)	IC50 [1]
CC1=Nc2c(O)nc(N)nc2NC1(C)C [2-amino-4-hydroxy-6-methyl-7,7-dimethyl-7,8-dihydropteridine]	particularly effective	particularly effective	–
CC1(C)Nc2nc(N)nc(O)c2N=C1CO [2-amino-4-hydroxy-6-hydroxymethyl-7,7-dimethyl-7,8-dihydropteridine]	particularly effective	particularly effective	–
CC1(C)Nc2nc(N)nc(O)c2N=C1COc1ccccc1 [A, 2-Amino-4-hydroxy-6-phenoxymethyl-7,7-dimethyl-7,8-dihydropteridine]	–	–	17 µM

— patent publication US4156725A (priority 1972, dated 1979)
